Measured values from PMC3783656 (Bioorganic & medicinal chemistry letters, 2013).
Converted amounts (≈) assume the structure as drawn. Like-named read-outs stand apart in the source and are kept apart here. Each block holds one molecule with its values, some of them ahead of it.

Tests used:
CK1δ [1] = target: T1, CK1δ (Homo sapiens, UniProt P48730); experiment: CK1δ inhibition, Reaction Biology Corp.; assay type: biochemical; details: for IC50: read-out: IC50 CK1δ
CK1 [2] = details: cited from earlier work
CK1δ [3] = target: T1, CK1δ; experiment: CK1δ inhibition, in-house kinase inhibition assay; assay type: biochemical; details: read-out: IC50 CK1δ
[4] = test system: human melanoma A375 cell line; experiment: MTT assay against A375 melanoma cells; assay type: cell-based
CK1 [5] = details: cited from earlier work; remark: listed apart in the source
CK1ε = CK1ε (Homo sapiens, UniProt P49674); experiment: CK1ε inhibition, Reaction Biology Corporation; assay type: biochemical
Chain of CK1ε (P49674 whole entry): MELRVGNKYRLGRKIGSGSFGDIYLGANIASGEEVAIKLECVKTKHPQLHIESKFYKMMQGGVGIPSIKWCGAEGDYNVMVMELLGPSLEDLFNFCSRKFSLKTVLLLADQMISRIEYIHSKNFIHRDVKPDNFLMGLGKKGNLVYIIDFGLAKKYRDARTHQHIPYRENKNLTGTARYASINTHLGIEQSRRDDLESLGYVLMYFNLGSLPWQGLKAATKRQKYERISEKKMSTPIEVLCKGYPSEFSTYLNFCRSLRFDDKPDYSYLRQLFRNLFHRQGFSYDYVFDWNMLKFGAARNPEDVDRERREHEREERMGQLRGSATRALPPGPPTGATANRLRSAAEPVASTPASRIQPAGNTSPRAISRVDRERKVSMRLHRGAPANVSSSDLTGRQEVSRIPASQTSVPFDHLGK

442 kinases = experiment: DiscoverRX KINOMEscan analysis of 442 kinases; assay type: binding; details: 10 μM, KINOMEscan of 442 kinases
[6] = Microsome stability, mouse liver microsomes
[7] = Microsome stability, rat liver microsomes
[8] = Microsome stability, human liver microsomes
Solubility in PBS buffer = assay type: physicochemical
Mouse PK studies = assay type: in vivo; details: IV dosing, 1 mg/kg, 10/10/80 DMSO/Tween/water
[9] = Solubility in DMEM/10% FBS; assay type: physicochemical
cytochrome P450 1A2 = cytochrome P450 1A2 (Homo sapiens, UniProt P05177); experiment: Cyp assay, 1A2; assay type: in vitro ADME; details: at 10 μM
Chain of cytochrome P450 1A2 (P05177 whole entry, species assumed): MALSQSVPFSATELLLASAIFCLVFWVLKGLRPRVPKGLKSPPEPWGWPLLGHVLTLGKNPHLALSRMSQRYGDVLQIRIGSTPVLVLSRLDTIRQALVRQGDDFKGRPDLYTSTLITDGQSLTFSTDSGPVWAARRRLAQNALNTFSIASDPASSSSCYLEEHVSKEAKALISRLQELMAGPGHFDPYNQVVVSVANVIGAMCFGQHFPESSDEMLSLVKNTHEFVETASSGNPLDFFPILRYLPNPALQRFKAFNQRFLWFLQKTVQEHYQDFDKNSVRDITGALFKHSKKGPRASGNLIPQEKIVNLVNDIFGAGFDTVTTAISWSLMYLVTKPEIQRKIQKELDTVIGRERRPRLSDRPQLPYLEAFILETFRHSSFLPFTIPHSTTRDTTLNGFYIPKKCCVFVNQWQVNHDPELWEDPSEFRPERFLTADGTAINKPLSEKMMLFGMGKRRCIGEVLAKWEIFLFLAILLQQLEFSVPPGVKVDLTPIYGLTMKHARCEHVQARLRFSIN

[10] = data obtained by Reaction Biology Corp.
[11] = read-out: MTT assay A375 EC50, human A375 melanoma cell line

T1 sequence (P48730 whole entry): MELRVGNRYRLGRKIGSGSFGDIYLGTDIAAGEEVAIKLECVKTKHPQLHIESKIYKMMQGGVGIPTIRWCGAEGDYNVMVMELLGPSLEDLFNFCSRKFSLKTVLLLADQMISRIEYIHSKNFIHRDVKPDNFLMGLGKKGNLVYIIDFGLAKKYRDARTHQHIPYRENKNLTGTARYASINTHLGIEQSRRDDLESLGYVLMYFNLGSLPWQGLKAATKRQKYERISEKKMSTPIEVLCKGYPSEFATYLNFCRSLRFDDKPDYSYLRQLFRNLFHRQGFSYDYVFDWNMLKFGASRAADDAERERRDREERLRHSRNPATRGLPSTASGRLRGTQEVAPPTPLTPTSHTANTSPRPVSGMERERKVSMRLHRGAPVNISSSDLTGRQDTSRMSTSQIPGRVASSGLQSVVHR

- IC50 (CK1δ [3]): 75 nM
SMILES: O=[N+]([O-])c1cccc2[nH]c(CNc3nc(N4CCOCC4)nc4c3ncn4-c3cc(F)cc(F)c3)nc12 [SR-2368]

- IC50 (CK1δ [1]; [10]): 16 nM
SMILES: CS(=O)(=O)c1cccc2[nH]c(CNc3nc(N4CCOCC4)nc4c3ncn4-c3ccsc3)nc12 [SR-2805]

- IC50 (CK1δ [3]): 57 nM
SMILES: O=[N+]([O-])c1cccc2[nH]c(CNc3nc(N4CCOCC4)nc4c3ncn4-c3cccc(F)c3)nc12 [SR-2364]

- IC50 CK1δ (CK1δ [1]; [10]): essentially inactive
- IC50 (CK1δ [1]; [10]): > 1000 nM
SMILES: O=[N+]([O-])c1cccc2[nH]c(CNc3nc(N4CCOCC4)nc4c3ncn4-c3ccc(F)cc3)nc12 [SR-2362]

- half-life ([6]; mouse, liver microsomes): 21 min
- half-life ([7]; rat, liver microsomes): 21 min
- half-life ([8]; human, liver microsomes): 54 min
SMILES: CCN(CC)CCNC(=O)c1c(C)[nH]c(/C=C2\C(=O)Nc3ccc(F)cc32)c1C [Sunitinib, sunitinib, reference compound]

- Solubility (Solubility in PBS buffer): 75 µM (≈ 32.4 µg/mL)
- IC50 (CK1δ [1]; [10]): 3 nM
SMILES: c1ccc2[nH]c(CNc3nc(N4CCNCC4)nc4c3ncn4-c3ccsc3)nc2c1 [SR-1292]

- IC50 (CK1δ [3]): 199 nM
SMILES: CC1CN(c2nc(NCc3nc4ccccc4[nH]3)c3ncn(-c4ccsc4)c3n2)CCN1 (stereo not drawn) [SR-2915]

- IC50 (CK1δ [3]): 51 nM
- Solubility (Solubility in PBS buffer): 54 µM (≈ 25.2 µg/mL)
SMILES: Clc1ccc2[nH]c(CNc3nc(N4CCNCC4)nc4c3ncn4-c3ccsc3)nc2c1 [SR-2876]

- IC50 (CK1δ [1]; [10]): 17 nM
SMILES: COc1ccc2[nH]c(CNc3nc(N4CCOCC4)nc4c3ncn4-c3ccsc3)nc2c1 [SR-1279]

- IC50 (CK1δ [1]; [10]): 21 nM
SMILES: O=[N+]([O-])c1ccc2[nH]c(CNc3nc(N4CCOCC4)nc4c3ncn4-c3ccsc3)nc2c1 [SR-1278]

- IC50 (CK1δ [1]; [10]): 19 nM
SMILES: O=[N+]([O-])c1cccc2[nH]c(CNc3nc(N4CCOCC4)nc4c3ncn4-c3ccoc3)nc12 [SR-2007]

- IC50 (CK1δ [1]; [10]): 10 nM
SMILES: CS(=O)(=O)c1ccc2[nH]c(CNc3nc(N4CCOCC4)nc4c3ncn4-c3ccsc3)nc2c1 [SR-2797]

- IC50 (CK1δ [1]; [10]): 57 nM
SMILES: c1ccc2[nH]c(CNc3nc(N4CCOCC4)nc4c3ncn4C3CCCC3)nc2c1 [SR-2149]

- AUC (Mouse PK studies): 1.75 µM·h
- Cl (Mouse PK studies): 2.2 mL/min/kg
- Cmax (Mouse PK studies): 3.2 µM
- T1/2 (Mouse PK studies): 43.8 min
- Microsome stability T1/2 (mouse) ([6]; mouse liver microsomes, third value of h/r/m): 1 min
- Solubility [9]: 28 µM (≈ 12.1 µg/mL)
- Microsome stability T1/2 (rat) ([7]; rat liver microsomes, second value of h/r/m): 6 min
- IC50 (CK1ε; read-out: CK1ε Inh IC50, data obtained by Reaction Biology Corporation): 540 nM
- Microsome stability T1/2 (human) ([8]; human liver microsomes, first value of h/r/m): 11 min
- EC50 [4, 11]: 111 nM
- Inhibition of 1A2 (cytochrome P450 1A2): e 86% Inhibition of 1A2 at 10 μM.
- IC50 (CK1δ [1]; [10]): 160 nM
SMILES: c1ccc2[nH]c(CNc3nc(N4CCOCC4)nc4c3ncn4-c3ccsc3)nc2c1 [SR-653234]

- IC50 (CK1δ [1]; [10]): 23 nM
SMILES: Clc1ccc2[nH]c(CNc3nc(N4CCOCC4)nc4c3ncn4-c3ccoc3)nc2c1 [SR-2850]

- IC50 (CK1δ [1]; [10]): 11 nM
SMILES: CN1CCN(c2nc(NCc3nc4ccccc4[nH]3)c3ncn(-c4ccsc4)c3n2)CC1 [SR-1294]

Second part, the molecule before the results:

SMILES: Clc1ccc2[nH]c(CNc3nc(N4CCOCC4)nc4c3ncn4-c3ccsc3)nc2c1 [SR-1274]
- IC50 (CK1δ [1]; [10]): 105 nM

SMILES: NCCNS(=O)(=O)c1ccc(Cl)c2ccncc12 [CKI-7]
- IC50 (CK1 [2]; read-out: CK1 inhibition): 6000 nM

SMILES: FC(F)(F)c1cccc2[nH]c(CNc3nc(N4CCOCC4)nc4c3ncn4-c3ccsc3)nc12 [SR-1272]
- IC50 (CK1δ [1]; [10]): 128 nM

SMILES: NC(=O)c1ccc(-c2nc(-c3ccc4c(c3)OCCO4)c(-c3ccccn3)[nH]2)cc1 [Compound D4476]
- EC50 [4, 11]: 10000 nM
- Activity in cell-based assays (CK1 [5]; cell-based assays): 20 to 50 µM

SMILES: CC(C)(C)c1cc(NC(=O)Nc2ccc(-c3cn4c(n3)sc3cc(OCCN5CCOCC5)ccc34)cc2)no1 [AC220, reference compound]
- Activity against CK1ε (CK1ε): inactive
- EC50 ([4]; Homo sapiens, A-375, read-out: MTT assay A375 EC50): 1570 nM
- Activity against CK1δ (CK1δ [1]): inactive

SMILES: Nc1nccc(-c2c(-c3ccc(F)cc3)ncn2C2CCCCC2)n1 [PF-670462, reference compound]
- Number of kinases inhibited ≥90% (442 kinases): 44
- EC50 [4, 11]: > 10000 nM

SMILES: Fc1ccc2[nH]c(CNc3nc(N4CCOCC4)nc4c3ncn4-c3ccsc3)nc2c1 [SR-1275]
- IC50 (CK1δ [1]; [10]): 50 nM

SMILES: COc1cc(OC)c(C=C2C(O)=Nc3ccccc32)c(OC)c1 [IC261]
- IC50 (CK1 [2]; read-out: IC50 for CK1 inhibition in vitro, in vitro): 1000 nM
- IC50 (CK1 [5]; read-out: IC50 for CK1 inhibition in cells, in cells): 25000 nM

SMILES: NC1CCN(c2nc(NCc3nc4cc(Cl)ccc4[nH]3)c3ncn(-c4ccsc4)c3n2)CC1 [SR-2875]
- IC50 (CK1δ [3]): 119 nM

SMILES: FC(F)(F)c1ccc2[nH]c(CNc3nc(N4CCOCC4)nc4c3ncn4-c3ccsc3)nc2c1 [SR-1273]
- IC50 (CK1δ [1]; [10]): 13 nM

SMILES: O=C(Nc1nc2ccc(C(F)(F)F)cc2[nH]1)c1csc(NC(=O)c2ccccc2OC(F)(F)F)n1 [Bischof-5, reference compound]
- EC50 [4, 11]: 2300 nM

SMILES: N#Cc1ccc2[nH]c(CNc3nc(N4CCOCC4)nc4c3ncn4-c3ccsc3)nc2c1 [SR-1276]
- IC50 (CK1δ [1]; [10]): 11 nM

SMILES: CC[C@H](CO)Nc1nc(Nc2cccc(-c3ccccn3)c2)c2ncn(C(C)C)c2n1 [(R)-DRF053]
- IC50 (CK1 [2]; read-out: CK1 inhibition, dual CK1/CDK inhibitor): 14 nM
